Measurements from patent US12486269B2 (Aconcagua Bio, Inc., priority 2024, dated 2025).

Tests used:
[1] = biological target: T1, human calcitonin receptor (CTR) (Homo sapiens, UniProt P30988); assay: Calcitonin Receptor (CTR) cAMP Assay; type: cell-based; settings: COS7-human CTR Clone #2 stable cell line, cAMP dynamic 2 kit, 30 min; read-out: Calcitonin Receptor cAMP Stimulation Activity: EC50
T1 construct: expressed in transfected cells; host or cells: COS-7 (COS7-human CTR Clone #2)
T1 sequence (P30988 25-474): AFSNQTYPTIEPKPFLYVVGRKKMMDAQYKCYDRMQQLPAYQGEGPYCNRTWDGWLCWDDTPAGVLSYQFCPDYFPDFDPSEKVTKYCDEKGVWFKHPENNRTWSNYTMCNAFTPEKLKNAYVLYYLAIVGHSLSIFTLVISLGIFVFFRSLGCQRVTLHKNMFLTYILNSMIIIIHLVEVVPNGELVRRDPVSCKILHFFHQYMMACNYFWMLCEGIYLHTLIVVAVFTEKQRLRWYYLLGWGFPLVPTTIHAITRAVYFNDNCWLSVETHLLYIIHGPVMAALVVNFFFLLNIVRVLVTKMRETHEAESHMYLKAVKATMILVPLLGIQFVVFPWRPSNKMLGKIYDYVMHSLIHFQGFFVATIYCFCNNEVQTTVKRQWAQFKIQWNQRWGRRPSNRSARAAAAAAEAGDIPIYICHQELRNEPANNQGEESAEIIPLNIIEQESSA
Method in brief: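 COS-7 cells stably expressing human CTR (2000 cells/well) were incubated 30 min at 37 °C with 4-fold serially diluted compound in HBSS/20 mM HEPES/0.5 mM IBMX/0.1% casein. cAMP was detected by HTRF (665/615 nm) after 1 h at RT. % activity was normalised to vehicle and positive controls.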

[2] = biological target: T2, COS-7/AMY3 (human calcitonin receptor (CTR) and RAMP3) (Homo sapiens, UniProt O60896+P30988); assay: Amylin Receptor cAMP Assay II; type: cell-based; settings: values marked **: Amylin Receptor cAMP Assay II; COS-7/AMY3 cells, cAMP dynamic 2 kit, 30 min; read-out: Amylin Receptor cAMP Stimulation Activity: EC50
T2 construct: expressed in transfected cells; host or cells: COS-7
T2 sequence (O60896 24-148, one chain of several): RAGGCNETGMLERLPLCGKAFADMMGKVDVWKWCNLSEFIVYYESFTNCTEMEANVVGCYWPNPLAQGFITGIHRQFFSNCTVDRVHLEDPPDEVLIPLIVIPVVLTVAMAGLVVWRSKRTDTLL
Method in brief: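 COS-7 cells stably co-expressing human CTR and RAMP3 (AMY3), 2000 cells/well in HBSS with 20 mM HEPES, 0.5 mM IBMX, 0.1% casein, stimulated with compound for 30 min at 37 °C. cAMP measured by HTRF (665/615 nm), activity normalized between vehicle and maximal control.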

SMILES | EC50 [1] | EC50 [2]
COc1cccc2c1CC[C@H]2Nc1nc(C(F)F)cc2cc(-c3c4c(nc(CCc5ccc(F)cc5)c3-c3n[nH]c(=O)o3)[C@@H]3CCCN3C4=O)sc12 [Compound 188, 5-((S)-4-(5-(difluoromethyl)-7-(((R)-4-methoxy-2,3-dihydro-1H-inden-1-yl)amino)thieno[2,3-c]pyridin-2-yl)-2-(4-fluorophenethyl)-5-oxo-7,8,9,9a-tetrahydro-5H-pyrido[2,3-a]pyrrolizin-3-yl)-1,3,4-oxadiazol-2(3H)-one] | 0.223 nM | 6.57 nM
COc1c(F)ccc2c1CC[C@H]2Nc1nccc2cc(-c3c4c(nc(CCc5ccc(F)cc5)c3-c3n[nH]c(=O)o3)C35CC(CN3C4=O)C5)sc12 [Compound 189, (R)-5-(4-(7-((5-fluoro-4-methoxy-2,3-dihydro-1H-inden-1-yl)amino)thieno[2,3-c]pyridin-2-yl)-2-(4-fluorophenethyl)-5-oxo-8,9-dihydro-5H,7H-8,9a-methanopyrido[2,3-a]pyrrolizin-3-yl)-1,3,4-oxadiazol-2(3H)-one] | 0.0262 nM | 0.213 nM
O=C1c2c(nc(CCc3ccc(F)cc3)c(-c3n[nH]c(=O)o3)c2-c2cc3ccnc(N[C@@H]4CCc5cc(F)c(F)cc54)c3s2)C23CC(CN12)C3 [Compound 190, (R)-5-(4-(7-((5,6-difluoro-2,3-dihydro-1H-inden-1-yl)amino)thieno[2,3-c]pyridin-2-yl)-2-(4-fluorophenethyl)-5-oxo-8,9-dihydro-5H,7H-8,9a-methanopyrido[2,3-a]pyrrolizin-3-yl)-1,3,4-oxadiazol-2(3H)-one] | 0.00786 nM | 0.184 nM
COc1c(F)c(F)cc2c1CC[C@H]2Nc1nccc2cc(-c3c4c(nc(CCc5ccc(F)cc5)c3-c3n[nH]c(=O)o3)[C@@H]3CCCN3C4=O)sc12 [Compound 192, 5-((S)-4-(7-(((R)-5,6-difluoro-4-methoxy-2,3-dihydro-1H-inden-1-yl)amino)thieno[2,3-c]pyridin-2-yl)-2-(4-fluorophenethyl)-5-oxo-7,8,9,9a-tetrahydro-5H-pyrido[2,3-a]pyrrolizin-3-yl)-1,3,4-oxadiazol-2(3H)-one] | 0.00532 nM | 0.8 nM
COc1c(F)ccc2c1CC[C@H]2Nc1nc(C)cc2cc(-c3c4c(nc(CCc5ccc(F)cc5)c3-c3n[nH]c(=O)o3)C35CC(CN3C4=O)C5)sc12 [Compound 193, (R)-5-(4-(7-((5-fluoro-4-methoxy-2,3-dihydro-1H-inden-1-yl)amino)-5-methylthieno[2,3-c]pyridin-2-yl)-2-(4-fluorophenethyl)-5-oxo-8,9-dihydro-5H,7H-8,9a-methanopyrido[2,3-a]pyrrolizin-3-yl)-1,3,4-oxadiazol-2(3H)-one] | 0.00749 nM | 0.226 nM
COc1cccc2c1CC(F)(F)[C@H]2Nc1nccc2cc(-c3c4c(nc(CCc5ccc(F)cc5)c3-c3n[nH]c(=O)o3)[C@@H]3CCCN3C4=O)sc12 [Compound 194, 5-((S)-4-(7-(((S)-2,2-difluoro-4-methoxy-2,3-dihydro-1H-inden-1-yl)amino)thieno[2,3-c]pyridin-2-yl)-2-(4-fluorophenethyl)-5-oxo-7,8,9,9a-tetrahydro-5H-pyrido[2,3-a]pyrrolizin-3-yl)-1,3,4-oxadiazol-2(3H)-one] | 0.229 nM | 1.96 nM
COc1c(F)c(F)cc2c1CC[C@H]2Nc1nc(C)cc2cc(-c3c4c(nc(CCc5ccc(F)cc5)c3-c3n[nH]c(=O)o3)C35CC(CN3C4=O)C5)sc12 [Compound 195, (R)-5-(4-(7-((5,6-difluoro-4-methoxy-2,3-dihydro-1H-inden-1-yl)amino)-5-methylthieno[2,3-c]pyridin-2-yl)-2-(4-fluorophenethyl)-5-oxo-8,9-dihydro-5H,7H-8,9a-methanopyrido[2,3-a]pyrrolizin-3-yl)-1,3,4-oxadiazol-2(3H)-one] | 0.00616 nM | 0.0995 nM
COc1c(F)ccc2c1C[C@@H](F)[C@H]2Nc1nc(C)cc2cc(-c3c4c(nc(CCc5ccc(F)cc5)c3-c3n[nH]c(=O)o3)C35CC(CN3C4=O)C5)sc12 [Compound 196, 5-(4-(7-(((1S,2R)-2,5-difluoro-4-methoxy-2,3-dihydro-1H-inden-1-yl)amino)-5-methylthieno[2,3-c]pyridin-2-yl)-2-(4-fluorophenethyl)-5-oxo-8,9-dihydro-5H,7H-8,9a-methanopyrido[2,3-a]pyrrolizin-3-yl)-1,3,4-oxadiazol-2(3H)-one] | 0.00979 nM | 0.196 nM
O=C1c2c(nc(CCC3CCOCC3)c(-c3cc(=O)[nH]o3)c2-c2cc3ccnc(N[C@@H]4CCc5ncccc54)c3s2)[C@@H]2CCCN12 [Compound 197, 5-((S)-4-(7-(((R)-6,7-dihydro-5H-cyclopenta[b]pyridin-5-yl)amino)thieno[2,3-c]pyridin-2-yl)-5-oxo-2-(2-(tetrahydro-2H-pyran-4-yl)ethyl)-7,8,9,9a-tetrahydro-5H-pyrido[2,3-a]pyrrolizin-3-yl)isoxazol-3(2H)-one] | 58.9 nM | 1790 nM
O=c1cc(-c2c(CCC3CCOCC3)nc3c(c2-c2cc4ccnc(N[C@@H]5CCc6ncccc65)c4s2)S(=O)(=O)N2CCC[C@@H]32)o[nH]1 [Compound 198, 5-[(2S)-9-[7-[[(5R)-6,7-dihydro-5H-cyclopenta[b]pyridin-5-yl]amino]thieno[2,3-c]pyridin-2-yl]-7,7-dioxo-11-(2-tetrahydropyran-4-ylethyl)-7thia-6,12-diazatricyclo[6.4.0.02,6]dodeca-1(12),8,10-trien-10-yl]isoxazol-3-one] | 19.2 nM | 1000 nM
CC(C)C1CS(=O)(=O)c2c1nc(CCC1CCOCC1)c(-c1cc(=O)[nH]o1)c2-c1ccc2c(ccn2Cc2ccc(C#N)c(F)c2)c1 (centres unmarked) [Compound 199, 2-fluoro-4-[[5-[3-isopropyl-1,1-dioxo-6-(3-oxoisoxazol-5-yl)-5-(2-tetrahydropyran-4-ylethyl)-2,3-dihydrothieno[3,2-b]pyridin-7-yl]indol-1-yl]methyl]benzonitrile] | 3.7 nM | 301 nM
N#Cc1ccc(Cn2ccc3cc(-c4c(-c5cc(=O)[nH]o5)c(CCC5CCOCC5)nc5c4S(=O)(=O)N4CCC[C@@H]54)ccc32)cc1F [Compound 200, 4-[[5-[(2S)-7,7-dioxo-10-(3-oxoisoxazol-5-yl)-11-(2-tetrahydropyran-4-ylethyl)-7thia-6,12-diazatricyclo[6.4.0.02,6]dodeca-1(8),9,11-trien-9-yl]indol-1-yl]methyl]-2-fluoro-benzonitrile] | 8.61 nM | 1310 nM
O=C1c2c(nc(CCC3CCOCC3)c(-c3cc(=O)[nH]o3)c2-c2ccc3c(ccn3Cc3ccc(F)c(F)c3)c2)[C@@H]2CCCN12 [Compound 201, (S)-5-(4-(1-(3,4-difluorobenzyl)-1H-indol-5-yl)-5-oxo-2-(2-(tetrahydro-2H-pyran-4-yl)ethyl)-7,8,9,9a-tetrahydro-5H-pyrido[2,3-a]pyrrolizin-3-yl)isoxazol-3(2H)-one] | 19.3 nM | 1370 nM
CC(c1ccc(F)c(F)c1)n1ccc2cc(-c3c4c(nc(CCC5CCOCC5)c3-c3cc(=O)[nH]o3)[C@@H]3CCCN3C4=O)ccc21 (stereo partly drawn) [Compound 202, 5-((9aS)-4-(1-(1-(3,4-difluorophenyl)ethyl)-1H-indol-5-yl)-5-oxo-2-(2-(tetrahydro-2H-pyran-4-yl)ethyl)-7,8,9,9a-tetrahydro-5H-pyrido[2,3-a]pyrrolizin-3-yl)isoxazol-3(2H)-one] | 66.2 nM | 1750 nM
N#Cc1ccc(Cn2c(=O)oc3cc(-c4c5c(nc(CCC6CCOCC6)c4-c4cc(=O)[nH]o4)[C@@H]4CCCN4C5=O)ccc32)cc1F [Compound 203, 4-[[6-[(9aS)-5-oxo-3-(3-oxoisoxazol-5-yl)-2-(2-tetrahydropyran-4-ylethyl)-1,4,7,8,9,9a-hexahydropyrido[2,3-a]pyrrolizin-4-yl]-2-oxo-1,3-benzoxazol-3-yl]methyl]-2-fluoro-benzonitrile] | 4.69 nM | 529 nM
CC(c1ccc(C#N)c(F)c1)n1ccc2cc(-c3c4c(nc(CCC5CCOCC5)c3-c3cc(=O)[nH]o3)[C@@H]3CCCN3C4=O)ccc21 (stereo partly drawn) [Compound 204, 2-fluoro-4-(1-(5-((S)-5-oxo-3-(3-oxo-2,3-dihydroisoxazol-5-yl)-2-(2-(tetrahydro-2H-pyran-4-yl)ethyl)-7,8,9,9a-tetrahydro-5H-pyrido[2,3-a]pyrrolizin-4-yl)-1H-indol-1-yl)ethyl)benzonitrile] | 5.06 nM | 266 nM
